In publication PMC10489817, “2-Alkyl-Substituted-4-Amino-Thieno[2,3-d]Pyrimidines: Anti-Proliferative Properties to In Vitro Breast Cancer Models” (Molecules, 2023):

Test system: BALB 3T3 cells
Assay: in vitro 3T3 NRU test, cytotoxicity
Type: cell-based, mouse
Details: for IC50: BALB 3T3, value in brackets
Description: Compounds 2–5 were studied for cytotoxicity/phototoxicity by an in vitro 3T3 NRU-test. The cell line BALB 3T3, clone A31 (mouse embryo fibroblasts), was incubated with the test compounds at a concentration from 15 to 4000 µg/mL for 24 h at 37 °C, 5% CO2, and 95% humidity. The cytotoxicity and phototoxicity were expressed in percentages relative to the negative control determined. […] Based on the dose–response curves, the CC50/PC50 values (50% cytotoxic/phototoxic concentration) were calculated by nonlinear regression analysis (Table 1). The CC50 values can be used to calculate the PIF (photo-irritancy factor) for each test compound according to the following formula: PIF = CC50/PC50.
BALB/3T3 cells were cultured in 75 cm^2 tissue culture flasks in DMEM, 10% FBS, 2 mM glutamine, and antibiotics (penicillin 100 U/mL and streptomycin-100 µg/mL) at 37 °C, 5% CO2, and 90% relative humidity. Cytotoxicity/phototoxicity was assessed by a validated BALB/3T3 clone A31 neutral red uptake assay (3T3 NRU test). Briefly, cells were plated in a 96-well microtiter plate at a density of 1 × 10^4 cells/100 µL/well and incubated for 24 h. A wide concentration range was applied for the test compounds. For the phototoxicity tests, 96-well plates were irradiated with a dose of 2.4 J/cm^2, and the cells were incubated for an additional 24 h. After treatment with neutral red medium, washing, and treatment with the ethanol/acetic acid solution, the absorption was measured on a TECAN microplate reader (TECAN, Grödig, Austria) at a wavelength of 540 nm. The light source which we used was a light-emitting diode (LED) matrix—an artificial solar light simulator Helios-iO, model LE-9ND55-H—5500K (SERIC Ltd., Tokyo, Japan).
Cytotoxicity/phototoxicity were expressed as CC50/PC50 values (concentrations required for 50% cytotoxicity/phototoxicity), calculated using non-linear regression analysis (GraphPad Software GraphPad Prism 9.5.1, San Diego, CA, USA). The CC50 values were used to calculate the PIF (photo-irritancy factor) for each test substance, according to the following formula: […]

Row | SMILES | IC50 of Mean ± SD, Cytotoxicity (BALB 3T3, 24 h, NRU, no irradiation (CC50)) | IC50
1 | CCOC(=O)c1sc2nc(CC)nc(N)c2c1C [Compound 4, Ethyl 4-Amino-2-Ethyl-5-Methylthieno[2,3-d]Pyrimidine-6-Carboxylate] | 1678 ± 70.4 mg/L | 6.4 mM
2 | CCOC(=O)Cc1nc(N)c2c(C)c(C(=O)OCC)sc2n1 [Compound 2, Ethyl 4-Amino-2-(2-Ethoxy-2-Oxoethyl)-5-Methylthieno[2,3-d]Pyrimidine-6-Carboxylate] | – | 5.4 mM
